Where “and” joins values, the source holds several entries; their conditions need not be identical. Equal values may be shown once.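 Where inhibition never reached the appropriate level, the endpoint shown equals the highest concentration tested. Otherwise, values were interpolated linearly from a five-concentration, 48-hour dose response in 96-well plates. The concentration for 50% growth inhibition is given as GI50. TGI: concentration producing complete growth inhibition.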
What was measured:
Experiment in all cases: growth of human tumour cells (NCI), 48 h
OVCAR-3 ovarian = system: OVCAR-3 ovarian
SK-MEL-2 melanoma = system: SK-MEL-2 melanoma
A549 NSCLC = system: A549 NSCLC
RPMI-8226 leukemia = system: RPMI-8226 leukemia
OVCAR-4 ovarian = system: OVCAR-4 ovarian
IGROV1 ovarian = system: IGROV1 ovarian
CAKI-1 renal = system: CAKI-1 renal
HCT-15 colon = system: HCT-15 colon
CCRF-CEM leukemia = system: CCRF-CEM leukemia
COLO 205 colon = system: COLO 205 colon

Row | SMILES | TGI (OVCAR-3 ovarian) | TGI (SK-MEL-2 melanoma) | TGI (A549 NSCLC) | TGI (RPMI-8226 leukemia) | TGI (OVCAR-4 ovarian) | TGI (IGROV1 ovarian) | TGI (CAKI-1 renal) | TGI (HCT-15 colon) | TGI (CCRF-CEM leukemia) | GI50 (OVCAR-3 ovarian) | GI50 (SK-MEL-2 melanoma) | GI50 (A549 NSCLC) | GI50 (OVCAR-4 ovarian) | GI50 (IGROV1 ovarian) | GI50 (CAKI-1 renal) | GI50 (HCT-15 colon) | GI50 (CCRF-CEM leukemia) | GI50 (COLO 205 colon) | TGI (COLO 205 colon) | GI50 (RPMI-8226 leukemia)
1 | CCOC(=O)C[C@@]12CCCN[C@]1(C)CCc1ccccc12 | > 100 µM | > 100 µM | > 100 µM | > 100 µM | > 100 µM | > 100 µM | > 100 µM | > 100 µM | > 100 µM |  |  |  |  |  |  |  |  |  |  | 
2 | Cc1ccc(S(=O)(=O)Nc2ccccc2C(C)(C)C)cc1 | 40 µM | 60.2 µM | > 100 µM | 54.3 µM | > 100 µM | > 100 µM | 59.3 µM | 54.6 µM | 63.8 µM |  |  |  |  |  |  |  |  |  |  | 
3 | C/C(=C/CCC(C)[C@@H]1CC[C@]2(C)C3=C(CC[C@@]12C)[C@@]1(C)CCC(=O)C(C)(C)[C@@H]1CC3)C(=O)O (some centres not stated) | 2.79 µM | 2.89 µM | 1.84 µM |  | 3.02 µM | 2.6 µM | 2.14 µM | 3 µM | 2.5 µM | 1.41 µM | 1.26 µM | 0.387 µM | 1.27 µM | 1.19 µM | 0.753 µM | 0.974 µM | 0.708 µM | 1.86 µM | 3.6 µM | 
4 | COc1cccc(-c2cc(=O)c3cc(N4CCN(C)CC4)ccc3[nH]2)c1 |  | > 100 µM | > 100 µM | 6.11 µM | > 100 µM | > 100 µM | > 100 µM |  | 5.89 µM |  | 3.16 µM | 6.99 µM | 10.6 µM | 2.86 µM | 0.722 µM | 2.44 µM | 0.598 µM | 2.02 µM | 3.55 µM and 10.7 µM | 1.93 µM
5 | C1CN2CCO[SiH](O1)OCC2 | > 100 µM | > 100 µM | > 100 µM | > 100 µM |  | > 100 µM | > 100 µM |  | > 100 µM |  |  |  |  |  |  |  |  |  | > 100 µM | 
6 | O=[N+]([O-])/C=C/c1ccc2ccccc2c1 | > 100 µM | > 61.6 µM | > 58.5 µM | > 100 µM | 26 µM | > 21.8 µM | 25.7 µM |  | > 100 µM |  |  |  |  |  |  |  |  |  | 5.97 µM | 
7 | COc1ccc(/C=C/C(=O)c2c(-c3ccccc3)nn(C)c(=O)c2N2CCCCC2)cc1 |  |  | > 100 µM | 31.8 µM |  | 77.9 µM | 92.4 µM | > 100 µM | 40.2 µM |  |  |  |  |  |  |  |  |  | 44 µM | 
8 | COC(=O)[C@]12CC[C@@H](C)[C@H](C)[C@@H]1C1=CC[C@@H]3[C@@]4(C)C(C=O)=C[C@@](C)(COS(C)(=O)=O)C4=CC[C@@]3(C)[C@]1(C)CC2 | 0.359 µM | 0.497 µM | 1.92 µM | 1.1 µM |  | 1.06 µM |  |  | 1.47 µM | 0.183 µM | 0.226 µM | 0.468 µM |  | 0.318 µM |  |  | 0.324 µM | 0.223 µM | 0.454 µM | 0.263 µM
9 | Cc1nc2sccn2c1C(=O)NNC(N)=S | > 100 µM | > 100 µM | > 100 µM | > 100 µM |  | > 100 µM | > 100 µM | > 100 µM | > 100 µM |  |  |  |  |  |  |  |  |  | > 100 µM | 
10 | N#Cc1c(-c2ccccc2)c(-c2ccccc2)cc2c(=O)c3ccc(Cl)cc3[nH]c12 | > 100 µM | > 100 µM | > 100 µM | > 100 µM |  | > 100 µM |  | > 100 µM | > 100 µM |  |  |  |  |  |  |  |  |  | > 100 µM | 
11 | CCOC(=O)C1=C(C)N(NC(N)=O)C2(N)N(NC(N)=O)C(C)=C(C(=O)OCC)C12C#N (configuration not stated) | > 100 µM | > 100 µM | > 100 µM | > 100 µM | > 100 µM | > 100 µM | > 100 µM | > 100 µM |  |  |  |  |  |  |  |  |  |  |  | 
12 | N#Cc1ccccc1Sc1ccccc1N |  | > 100 µM | > 100 µM |  | > 100 µM | > 100 µM | > 100 µM |  | > 100 µM |  |  |  |  |  |  |  |  |  | > 100 µM | 
13 | C#COc1cccc(Nc2ncnc3cc(NC(=O)[C@@H](C)Cl)ccc23)c1 | > 62.5 µM | > 62.5 µM | > 62.5 µM | > 62.5 µM |  | > 62.5 µM | > 62.5 µM | > 62.5 µM | > 62.5 µM | 2.68 µM | 5.24 µM | 9.86 µM |  | 5.29 µM | 10.2 µM | 3.98 µM | 7.45 µM | 5.3 µM | > 62.5 µM | 13.8 µM
14 | N#CC(C(=O)Nc1ccccc1)C1=C(Cl)C(=O)c2ccccc2C1=O (configuration not stated) | 34.5 µM | 32.7 µM | 43.4 µM |  | 31 µM | 34.8 µM | 41.2 µM | 32.6 µM | > 100 µM |  |  |  |  |  |  |  |  |  | 37.3 µM | 
15 | NC1CCC2(O)c3ccccc3C2C1 (configuration not stated) |  | > 100 µM | > 100 µM | > 100 µM | > 100 µM |  |  | > 100 µM | > 100 µM |  |  |  |  |  |  |  |  |  | > 100 µM | 
16 | [O-][n+]1c2cccc(O)c2[n+]([O-])c2cccc(O)c21 | > 100 µM |  | > 100 µM | 83.3 µM | > 100 µM | 69 µM | > 100 µM | > 100 µM | 56 µM |  |  |  |  |  |  |  |  |  | > 100 µM | 
17 | OC1=CN=C(c2ccccc2)Oc2ccccc21 | > 100 µM | > 100 µM | > 100 µM | > 100 µM | > 100 µM | > 100 µM |  | > 100 µM | > 100 µM |  |  |  |  |  |  |  |  |  | > 100 µM | 
18 | CCC(Oc1ccc(OC)c2c1C(=O)CCC2)C(=O)O (configuration not stated) | > 100 µM | > 100 µM | > 100 µM | > 100 µM | > 100 µM | > 100 µM |  | > 100 µM | > 100 µM |  |  |  |  |  |  |  |  |  | > 100 µM | 
19 | CC(C)(C)C1=NO[C@H]2[C@@H](NC(=O)c3ccccc3)CC[C@@H]12 | > 100 µM |  | > 100 µM | > 100 µM | > 100 µM | > 100 µM | > 100 µM | > 100 µM | > 100 µM |  |  |  |  |  |  |  |  |  | > 100 µM | 
20 | COCOC1CCCC[C@@]1(OCCOCCO[C@@]1(c2ccccc2)CCCC[C@H]1OCOC)c1ccccc1 (some centres not stated) | > 100 µM | > 100 µM | > 100 µM | > 100 µM | > 100 µM | > 100 µM | > 100 µM |  | > 100 µM |  |  |  |  |  |  |  |  |  | > 100 µM | 

Source: PubChem BioAssay (NCI)
